{"source": "patent US7455861B2", "about": "“Angelicae sinensis extracts useful for treatment of cancers” (priority 2004, dated 2008)", "key": {"CL1-5": {"system": "CL1-5", "assay": "Cytotoxicity (IC50) on CL1-5", "format": "cell-based", "settings": "Homo sapiens", "method": "(§1) Human tumor cell lines (MCF-7, CL1-5, HT-29, Caco-2), human umbilical vascular endothelial cells (HUVEC), and human dermal fibroblasts (HDF) were tested for sensitivity on Angelicae sinensis extracts, ligustilide, n-butylidenephthalide and its derivatives in vitro. The DBTRG-05MG, BCM, HL-60 and J5 cells were grown in RPMI-1640 medium containing 10% fetal calf serum and 100 ng/ml penicillin and […] streptomycin at 37° C. in a humidified atmosphere with 5% CO2. The G5T/VGH, RG2, Ni 8, SVEC and Balb/3T3 cells were cultured in DMEM with 10% fetal calf serum and 100 ng/ml penicillin and […] streptomycin at 37° C. in 5% CO2. Mycoplasma infection of the culture cells was excluded by PCR screening methods before each experiment.\n(§2) The effects on cell viability after the treatments with different concentrations of the Angelicae sinensis extracts or the active components purified therefrom were evaluated by modified MTT assay in triplicate. Briefly, the cells (5×10^3) were incubated into 96-well plates containing 100 μl of a growth medium. The cells were permitted to adhere for 24 hours, then treated with 100 μl of the herbal extracts or the active components dissolved in the medium. The control contained DMSO of <0.02% (v/v). […] Absorbance at 550 nm of the solutions was measured with MRX Microtiter Plate Luminometer (DYNEX, USA). The absorbance of untreated cells was considered as 100%. […]"}, "RG2": {"system": "RG2", "assay": "Cytotoxicity (IC50) on RG2", "format": "cell-based, rat", "settings": "Rattus norvegicus, RG2", "method": "as §1\n(§3) The effects on cell viability after the treatments with different concentrations of the Angelicae sinensis extracts or the active components purified therefrom were evaluated by modified MTT assay in triplicate. Briefly, the cells (5×10^3) were incubated into 96-well plates containing 100 μl of a growth medium. The cells were permitted to adhere for 24 hours, then treated with 100 μl of the herbal extracts or the active components dissolved in the medium. The control contained DMSO of <0.02% (v/v). After 24, 48 and 72 h incubation, the drug-containing medium was replaced by 50 μl of fresh medium, and cells in each well were incubated in 50 μl of 400 μg/ml MTT for 6-8 h. The medium and MTT were removed later and 100 μl of DMSO was added to each well and to the control, to dissolve the soluble components. Absorbance at 550 nm of the solutions was measured with MRX Microtiter Plate Luminometer (DYNEX, USA). The absorbance of untreated cells was considered as 100%. To evaluate the effects of the extracts or the active components on cell growth rate of GBM cells, 5×10^3 exponentially growing cells were treated with different concentrations for 24, 48, or 72 h. The cytotoxicity of each test substance was determined as an IC50 value, which represents the drug concentration required to cause 50% inhibition. All experiments in this study were performed in triplicate."}, "MMP-2": {"system": "MMP-2", "assay": "RT-PCR of MMP-2 in HUVEC", "format": "cell-based, human"}, "DBTRG-05MG cells": {"system": "DBTRG-05MG cells", "assay": "Western blot analysis of apoptosis molecules", "format": "cell-based, human", "settings": "BP 400 μM", "method": "DBTRG-05MG cells (human GBM cells) were treated with AS-C (70 μg/ml) for 0, 6, 12, 24 and 48 hours. In another test, DBTRG-05MG cells were treated with BP (400 μM) for 0, 1.5, 3, 6, 12, 24 and 48 hours. The cell pellets were re-suspended in lysis buffer ([…] Tris-HCl, pH 7.5, 1 mM EGTA, 0.5% CHAPS, 10% (v/v) glycerol, 5 mM β-2-mercaptoethanol and 0.1 mM phenylmethylsulfonyl fluoride) and incubated on ice for 30 min, and then centrifuged at 13000×rpm at 4° C. for 20 minutes. The protein concentration of whole cell lysates was measured with BCA protein assay kit (Pierce, Rockford, Ill.) following the manufacturer's instructions. The cell lysates (20 μg/lane) were electrophoresed on 10-12% SDS-PAGE (Bio-Rad, Hercules, Calif.). Proteins were transferred to polyvinyldenefluoride (PVDF) membranes (Amersham Lifesciences, Piscataway, N.J.). The membranes were masked for 1 hour at room temperature with 5% skim milk as the blocking agent, and incubated with the respective antibodies of Fas (FL-335), Fas-L (C-178), caspase 3 (H-277), caspase 8 (H-134), caspase 9 (H-170), Bax (B-9), p16 (F-12), p21 (F-5), p53 (DO-1; 1/100 dilution) (Santa Cruz Biotechnology Inc., CA, U.S.A.), phospho-p53 (Ser15; 1/2000 dilution) and phospho-Rb (Ser795; 1/2000 dilution) (Cell Signaling Technology, MA, USA) for 2 hours at room temperature. Antibody recognition was detected, by incubating the membranes with the respective anti-mouse, anti-rabbit, anti-goat IgG secondary antibodies (1/1000 dilution; Santa Cruz Biotechnology Inc., CA, U.S.A.) conjugated to horseradish peroxidase, for 1 hour at room temperature, and visualized with the ECL Plus chemiluminescence system (Amersham, Arlington Heights, Ill.). For system control, SDS-PAGE gels, for every test sample, were prepared in duplicate, containing the same amount of protein; and the control gel was stained with coomassie blue. The other gel was used for Western Blot analysis. The intensity of the bands was analyzed by densitometry with a GS-800 Calibrated Imaging Densitometer (Quantity One 4.0.3 software; Bio-Rad). […] In addition, the activation of the death receptor-induced apoptosis-related caspases-8 was monitored."}, "AT12": {"system": "AT12", "assay": "Cytotoxicity (IC50) on AT12", "format": "cell-based", "settings": "Homo sapiens, read-out: Cytotoxicity (IC50) AT12", "method": "as §3"}, "MCF-7": {"system": "MCF-7", "assay": "Cytotoxicity (IC50) on MCF-7", "format": "cell-based", "settings": "Homo sapiens, MCF7", "method": "as §1, §2"}, "HCT15": {"system": "HCT15", "assay": "Cytotoxicity (IC50) on HCT15", "format": "cell-based", "settings": "Homo sapiens, HCT-15", "method": "as §3"}}, "note": "Where “and” joins values, the source holds several entries; their conditions need not be identical. Equal values may be shown once. Read-outs that look alike come from different tables or passages of the source.", "data": [{"compound": "CCCC=C1OC(=O)c2ccccc21", "note": "[BP, n-Butylidenephthalide]", "values": [{"measurement": "IC50", "setting": "CL1-5; Table 2", "result": "> 100", "unit": "µg/mL"}, {"measurement": "IC50", "setting": "CL1-5; Table 2, value in parentheses", "result": "> 532", "unit": "µM"}, {"measurement": "IC50", "setting": "RG2; Table 1, value in parentheses", "result": 7.45, "unit": "µM"}, {"measurement": "IC50", "setting": "RG2; Table 2", "result": 1.4, "unit": "µg/mL"}, {"measurement": "IC50", "setting": "RG2; Table 2, value in parentheses", "result": 7.45, "unit": "µM"}, {"measurement": "IC50", "setting": "RG2; cancer cells, Table 1", "result": 1.4, "unit": "µg/mL"}, {"measurement": "Inhibition RT-PCR MMP-2", "setting": "MMP-2", "result": 159.4, "unit": "µg/mL"}, {"measurement": "Inhibition RT-PCR MMP-2", "setting": "MMP-2; value in parentheses", "result": "(847.9 μM)"}, {"measurement": "Caspase-3", "setting": "DBTRG-05MG cells", "result": "increase"}, {"measurement": "cdk2, cdk4, cdk6 cyclins D1 and cycline E", "setting": "DBTRG-05MG cells", "result": "decrease"}, {"measurement": "expression of the Fas Ligand", "setting": "DBTRG-05MG cells", "result": "suppressing"}, {"measurement": "procaspase 8", "setting": "DBTRG-05MG cells", "result": "declined"}, {"measurement": "procaspase-3", "setting": "DBTRG-05MG cells", "result": "declined"}, {"measurement": "procaspase-9", "setting": "DBTRG-05MG cells", "result": "declined"}, {"measurement": "expression of Fas, increase", "setting": "DBTRG-05MG cells; 1.5 h", "result": 5.2, "unit": "times"}, {"measurement": "p53 phosphorylation increase", "setting": "DBTRG-05MG cells; 1.5 h", "result": 5.2, "unit": "times"}, {"measurement": "AIF expression increase", "setting": "DBTRG-05MG cells; 48 h", "result": 2.4, "unit": "times"}, {"measurement": "Bax expression increase", "setting": "DBTRG-05MG cells; 48 h", "result": 16, "unit": "times"}, {"measurement": "Rb phosphorylation decrease", "setting": "DBTRG-05MG cells; 48 h", "result": 0.2, "unit": "times"}, {"measurement": "activated caspase-9", "setting": "DBTRG-05MG cells; 48 h", "result": 25.8, "unit": "times"}, {"measurement": "activation of caspase 8", "setting": "DBTRG-05MG cells; 48 h", "result": 137.9}, {"measurement": "expression of Fas, increase", "setting": "DBTRG-05MG cells; 48 h", "result": 27.9, "unit": "times"}, {"measurement": "p16 expression increase", "setting": "DBTRG-05MG cells; 48 h", "result": 3.1, "unit": "times"}, {"measurement": "p21 expression increase", "setting": "DBTRG-05MG cells; 48 h", "result": 2.3, "unit": "times"}, {"measurement": "p53 expression increase", "setting": "DBTRG-05MG cells; 48 h", "result": 1.4, "unit": "times"}, {"measurement": "p53 phosphorylation increase", "setting": "DBTRG-05MG cells; 48 h", "result": 9.2, "unit": "times"}, {"measurement": "IC50", "setting": "AT12", "result": "10 µg/mL to 15 µg/mL and 53.2 µM to 79.8 µM"}, {"measurement": "IC50", "setting": "MCF-7; Table 1, value in parentheses", "result": "> 106", "unit": "µM"}, {"measurement": "IC50", "setting": "MCF-7; cancer cells, Table 1", "result": "> 20", "unit": "µg/mL"}, {"measurement": "IC50", "setting": "HCT15; Table 2", "result": "25 to 30", "unit": "µg/mL"}, {"measurement": "IC50", "setting": "HCT15; Table 2, value in parentheses", "result": "133 to 160", "unit": "µM"}]}]}
